Patent publication US20100112012A1, “MODULATION OF IMMUNE RESPONSES” (CLEVELAND CLINIC FOUNDATION, priority 2005, published 2010)
“Also recorded” adds a separate entry of the source.

Legend:
[1] = test system: p53; test: Screening for p53-activating compounds, p53-responsive reporter in RCC45ConALacZ cells; type: cell-based, human
Experimental: (§1) Transient transfections. 2×10^5 cells were plated into 6-well plates and, after overnight incubation, transfected with Lipofectamin Plus reagent (Gibco BRL) with 0.5 μg of reporter plasmids (p21-ConALuc or pNF-κBLuc) in combination with different concentrations of plasmids expressing p53, Arf, Ss-IκB, or siHDM2. Corresponding empty vectors were added in all transfections up to 2 μg of total DNA. Normalization of transfection efficiency was done by adding 0.2 μg of pCMV-LacZ plasmid. Luciferase activity and β-galactosidase activity were measured in lysates prepared 48 hours after transfection with Cell Lysis Buffer (Promega) by the luciferase assay system (Promega) or β-galactosidase enzyme system (Promega). Luminometric and colorimetric reactions were read on the Wallack 1420 plate reader (Perkin Elmer). Stable transduction of reporters. 2×10^4 cells with integrated reporter were plated in 96-well plates. After overnight incubation, chemicals or media from lentivirus-producing cells were added. At different times, cell lysates were prepared using Reporter Lysis Buffer (Promega). Luciferase or β-galactosidase activity and protein concentration were measured in aliquots of cell lysates using standard kits (Promega, Luciferase and β-galactosidase assay systems, Biorad Protein Assay Kit).
The DiverSet library of 34,000 chemical compounds and focused libraries of structural analogues of selected hits were provided by Chembridge, Calif. Cell lines with p53- or NF-κB-responsive luciferase or β-galactosidase reporters were described previously (5, 7). For screening chemicals, 2×10^4 RCC45ConALacZ cells (RCC45-based p53 reporter cells) were plated per well of 96-well plates in 200 μL of phenol-red-free RPMI medium with standard additions. After overnight incubation, the compounds were added to final concentrations of 5-15 μM (0.2 μL of compound in DMSO per well). […] After 24 h, lysis buffer with ortho-nitrophenyl-β-D-galactopyranoside (ONPG) was added and β-galactosidase activity was estimated colorimetrically by a multiwell plate reader.

[2] = test system: p53; test: p53-responsive reporter activity in tumor cells (HT1080 and others); type: cell-based, human
Experimental: as §1

[3] = test system: p53; test: p53, p21 and Mdm2 levels in treated cells (Western analysis); type: cell-based, human
Experimental: (§2) Cells were lysed in RIPA buffer (25 mM Tris HCl, pH 7.2, 125 mM NaCl, 1% NP40, 1% sodium deoxycholate, 1 mM EDTA) containing 1 mM PMSF (Sigma), 10 ug/ml of aprotinin (Sigma) and 10 ug/ml of leupeptin (Sigma). Protein concentrations were determined with the BioRad Dc protein assay kit. Equal protein amounts were run on gradient 4-20% precast gels (Novex) and blotted onto PVDF membranes (Amersham). The following antibodies were used: anti-p53—monoclonal mouse DO1 (Santa-Cruz), anti-p21—monoclonal mouse F-5 (Santa-Cruz), anti-mdm2—monoclonal mouse SMP14 (Santa-Cruz), anti-p65—(C20, Santa Cruz), anti-phospho-p65—(ser536, Cell Signaling), anti-IκBa—(C21, Santa Cruz), anti-p50—(NLS, Santa Cruz), anti-IKK1 (Cell Signaling), anti-γH2X (Cell Signaling), anti-actin (Santa Cruz). p53 phosphorylation status was analyzed using the phospho-p53 sampler kit from Cell Signaling according to the manufacturer's recommendations. HRP-conjugated secondary antibodies were purchased from Santa Cruz. Quantitation of the data was performed using Quantity One software from BioRad.

[4] = test system: HT1080 cells; test: Cell cycle analysis; type: cell-based, human; details: p53-dependent
Experimental: At the end of the incubation period, cells were collected, fixed and stained with propidium iodide as previously described (3a). DNA content was measured using FACScalibur (Becton Dickinson) and analyzed using CellQuest software.

[5] = test system: RCC45 and RCC54 cells; test: Growth arrest or apoptosis of RCC cells treated with 9AA; type: cell-based, human
[6] = test system: RCC cell lines; test: Growth inhibition assay, RCC, non-RCC and normal kidney (NKE) cells; type: cell-based, human
Experimental: Growth inhibition assay. […] Cell survival was estimated after an additional 48 hours, using standard Methylene Blue staining followed by extraction and colorimetrical detection of the dye.

[7] = test system: p53; test: Phosphorylation status of p53 (Western analysis); type: cell-based, human; details: RCC45 cells, 9AA 5 μM, 16 h
Experimental: as §2

[8] = test system: histone H2A.X; test: Immunofluorescent detection of phosphorylated histone H2A.X; type: cell-based, human; details: HT1080 cells, 10 μM
Text: (§3) All washings were done with blocking solution.

[9] = test system: topoisomerase II; test: DNA topoisomerase II activity assay; type: cell-based, human; details: direct in vitro assay, 1 h
[10] = test system: proteasomal activity; test: Proteasome inhibitor assay; type: biochemical; details: direct in vitro assay (not shown)
Text: The kit for assaying proteasomal activity was purchased from Boston Biochem, Inc. and used according to the manufacturer's recommendations.

[11] = test system: IκBα; test: IκBα level (Western analysis); type: cell-based, human
Experimental: as §2

[12] = test system: NF-κB; test: NF-κB-dependent reporter in H1299-NF-kBLuc cells; type: cell-based, human
Experimental: as §1

[13] = test system: p53; test: Transient transfection of sr-IκB with p53-responsive reporter; type: cell-based, human; details: ACHN cells, 9AA 10 μM, 24 h
Experimental: as §1

[14] = test system: NF-κB; test: Electromobility shift assay and immunofluorescent staining of nuclear NF-κB; type: cell-based, human
Text: as §3

[15] = test system: p65 subunit of NF-κB; test: Phosphorylation of serine 536 of p65 (Western analysis); type: cell-based, human; details: basally and after TNF-dependent induction; 9AA 10 μM
Experimental: as §2

[16] = test system: p53-deficient cells
Experimental: All cells were maintained in RPMI 1640 medium, supplemented with 10% FBS, 1 mM sodium pyruvate, 10 mM Hepes buffer, 55 nM β-mercaptoethanol and antibiotics. […] Cells with inhibited p53 expression were generated by retroviral transduction of pBabeH1-sip53 or pBabeH1-siGFP vectors for siRNA expression with following selection on puromycin.
Clonogenic survival. 5×10^3 cells were plated in 6-well plates and treated with different concentrations of drugs for 24 hours. Then fresh drug-free medium was added and the numbers of colonies were estimated 7-14 days later. Growth inhibition assay. […] Cell survival was estimated after an additional 48 hours, using standard Methylene Blue staining followed by extraction and colorimetrical detection of the dye.

Structure (SMILES): Nc1c2ccccc2nc2ccccc12 [9AA, 9-aminoacridine]
- activation of the p53-dependent reporter (p53 transactivation) in RCC [1]: structure primarily responsible for induction of the reporter
- time of peak (maximum) p53 reporter activity ([2]; HT1080 cells): 24 h
- activation of p53-mediated transcription compared with DNA-damaging agents ([2]; tumor cells with wild-type p53, 9AA 1-10 μM, doxorubicin 0.2-2 μM, 24 h): more strongly than doxorubicin in the majority of tumor cells tested; also recorded: more strongly than DNA-damaging agents
- levels of the endogenous proteins p21 and Mdm2 ([3]; cells treated for 16 h): dose-dependent increase
- p53 mRNA expression ([3]; data not shown): No increase
- stabilization and accumulation of p53 protein ([3]; treated cells (HT1080, 5 μM 9AA, 16 hours in FIG. 6)): induced stabilization and accumulation of p53 protein; also recorded: leads to p53 stabilization
- effect on the cell cycle ([4]; 3 μM): growth arrest
- effect on the cell cycle ([4]; 20 μM): apoptosis
- cellular effect in RCC45 and RCC54 cells ([5]; 2 μM): growth arrest
- cellular effect in RCC45 and RCC54 cells ([5]; 10 μM): apoptosis
- IC50 in RCC cells compared with non-RCC cells ([6]; 6 RCC and 6 non-RCC cell lines, growth inhibition assay): in the same range as for non-RCC cells
- sensitivity of RCC-derived cell lines versus normal kidney epithelial (NKE) cells ([6]; 72 h after treatment): more toxic for RCC than for NKE cells; also recorded: more sensitive to 9AA than normal kidney epithelial cells
- phosphorylation of p53 [7]: did not induce the phosphorylation of p53
- phosphorylation of p53 serine 392 [7]: increasingly phosphorylated
- phosphorylation of histone H2A.X [8]: Neither 9AA nor QC induced phosphorylation of histone H2A.X
- poisoning of topoisomerase II [9]: no such activity
- inhibition of proteasomal activity [10]: ruled out
- level of IκBα ([11]; PC-3 cells 10 μM 1-8 h, MCF7 cells 10 μM): gradual decrease or even complete disappearance of IκBα
- TNF-stimulated induction of IκBα ([11]; TNF 10 ng/ml, 9AA 10 μM): blocked; also recorded: inhibits reconstitution of the level of IκB protein
- basal and TNF-induced NF-κB reporter activities ([12]; H1299-NF-kB-Luc cells, TNF 10 ng/ml): strong dose-dependent suppression; also recorded: capable of inhibiting both basal and TNF-induced activities of NF-κB
- inhibition of NF-κB transactivation induced by trichostatin A ([12]; H1299 cells, 100 nM TSA, 9AA 20 μM, 4 or 16 hours): could no longer be blocked by 9AA; also recorded: does not inhibit
- activation of a p53-dependent reporter in the presence of sr-IκB [13]: could not further activate
- binding of NF-κB to DNA ([14]; H1299-NF-κBLuc cells, with TNF 10 ng/ml, 6 h, gel-shift): significant increase in the binding of NF-κB to DNA
- nuclear accumulation and retention of NF-κB (p65) complexes ([14]; TNF 10 ng/ml, 10 μM): greatly prolonged the time of its presence in nuclei; also recorded: causes nuclear accumulation of inactive NF-κB; also recorded: causes accumulation of p65/p50 and p50/p50 NF-κB complexes in the nuclei
- composition of NF-κB complexes ([14]; gel-shift assays with antibodies, H1299 cells): did not significantly change the composition of NF-κB complexes
- proportion of phosphorylated serine 536 in the p65 subunit of NF-κB [15]: reduce the proportion of phosphorylated serine 536; also recorded: decreases the phosphorylation of p65 in response to TNF
- toxicity to p53-deficient cells (p53 dependence of cytotoxicity) [16]: less toxic to p53-deficient cells
